For three molecules, IC50 results are on record in US8207134B2, “Fused ring spiroketal derivative and use thereof as anti-diabetic drug” (Chugai Seiyaku Kabushiki Kaisha, priority 2006, dated 2012).

The test deals with T1, human SGLT2 (Homo sapiens, UniProt P31639).
T1 construct: expressed in transfected cells; host or cells: CHO-K1
T1 sequence (P31639 1-672): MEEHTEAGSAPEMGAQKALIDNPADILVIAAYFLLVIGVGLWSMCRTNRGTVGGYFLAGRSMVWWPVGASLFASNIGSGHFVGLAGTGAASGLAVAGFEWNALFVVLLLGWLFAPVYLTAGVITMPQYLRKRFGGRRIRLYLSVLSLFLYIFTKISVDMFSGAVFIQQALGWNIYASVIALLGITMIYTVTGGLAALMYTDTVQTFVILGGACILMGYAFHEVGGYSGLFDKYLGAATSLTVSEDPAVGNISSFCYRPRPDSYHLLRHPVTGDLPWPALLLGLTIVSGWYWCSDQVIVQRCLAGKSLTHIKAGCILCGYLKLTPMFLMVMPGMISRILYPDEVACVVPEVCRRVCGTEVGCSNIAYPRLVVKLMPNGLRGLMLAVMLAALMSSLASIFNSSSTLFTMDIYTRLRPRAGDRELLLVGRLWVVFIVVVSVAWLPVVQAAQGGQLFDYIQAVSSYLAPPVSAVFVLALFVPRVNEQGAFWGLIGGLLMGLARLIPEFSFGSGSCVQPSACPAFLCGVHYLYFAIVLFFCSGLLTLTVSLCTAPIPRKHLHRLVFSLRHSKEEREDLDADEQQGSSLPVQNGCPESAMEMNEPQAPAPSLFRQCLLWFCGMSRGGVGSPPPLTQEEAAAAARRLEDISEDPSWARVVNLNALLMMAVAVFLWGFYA
The experiment in a line: Inhibitory activity against methyl-α-D-glucopyranoside uptake of human Na+-glucose cotransporter SGLT2. It is filed as cell-based. The settings on record: CHO-K1 cells stably expressing human SGLT2; methyl-α-D-(U-14C)glucopyranoside uptake, 37° C. for 45 minutes; read-out: Ic50 value (inhibition of SGLT2). The source says: Evaluation of Inhibitory Activity Against Methyl-α-D-Glucopyranoside Uptake of Human Na^+-Glucose Cotransporter (SGLT1 and SGLT2)
2) Construction of Human SGLT2 Expression Vector
Human SGLT2 cDNA was amplified by PCR with a cDNA library derived from human kidney (Clontech) as a template, synthetic DNA primers and KOD+ DNA Polymerase. The amplified cDNA was inserted into pcRII-Topo vector by using a Topo TA Cloning Dual Promoter kit. E. coli competent cells (TPO10) were transformed with the plasmid vector, cultured in LB medium containing ampicillin (50 mg/L) to grow ampicillin-resistant clones. The plasmid vector containing human SGLT2 cDNA was purified from the clone in a standard manner. Human SGLT2 cDNA added restriction enzyme recognition sites (Xho I at 5′-end, Hind III at 3′-end) was amplified by PCR with the plasmid vector as a template, synthetic DNA primers containing an additional restriction enzyme recognition site and KOD+ DNA Polymerase. This amplified cDNA was digested with Xho I and Hind III, and ligated into expression vector pcDNA3.1(−) digested with Xho I and Hind III by using a Rapid DNA Ligation kit. E. coli competent cells (DH5α) were transformed with the ligated expression vector and grown in ampicillin-containing LB medium. Human SGLT2 expression vector was purified from the ampicillin-resistant clone in a standard manner.
3) Establishment of Cell Lines Stably Expressing Human SGLT1 or Human SGLT2
The human SGLT1 expression vector or the human SGLT2 expression vector was digested with the restriction enzyme Pvu I and transfected into CHO-Kl cells with FuGENE (Roche Diagonostics). After the transfection, the cells were cultured at 37° C. in the presence of 5% CO2 for about 3 weeks in DMEM medium (Gibco) containing penicillin (50 U/mL, SIGMA), streptomycin (50 mg/L, SIGMA), geneticin (200 mg/L, Nacalai Tesque, Inc., Japan) and 20% fetal bovine serum to obtain geneticin-resistant clones. […]

With `CCc1ccc(Cc2cccc3c4c(sc23)C2(OCC4)O[C@H](CO)[C@@H](O)[C@H](O)[C@H]2O)cc1` (stereo in doubt) [Example 3, (1S,3′R,4′S,5′S,6′R)-8-[(4-ethylphenyl)methyl]-3,3′,4,4′,5′,6′-hexahydro-6′-hydroxymethyl-spiro[2-oxa-9-thia-fluorene-1,2′-[2H]pyran]-3′,4′,5′-triol], the IC50 came out at 5.1 nM.

Regarding `CCc1ccc(Cc2csc3cc4c(cc23)[C@]2(OC4)O[C@H](CO)[C@@H](O)[C@H](O)[C@H]2O)cc1` [Example 1, (3′R,4′S,5S,5′S,6′R)-3-[(4-ethylphenyl)methyl]-6′-(hydroxymethyl)-3′,4′,5′,6′-tetrahydro-spiro[thieno[2,3,f]isobenzofuran-5(7H),2′-[2H]pyran]-3′,4′,5′-triol], the half-maximal inhibitory concentration (IC50) was 3.9 nM.

As to `CCc1ccc(Cn2ccc3cc4c(cc32)[C@]2(OC4)O[C@H](CO)[C@@H](O)[C@H](O)[C@H]2O)cc1` [Example 2, (3′R,4′S,5′S,6′R,7S)-1-[(4-ethylphenyl)methyl]-6′-hydroxymethyl-3′,4,5′,6′-tetrahydro-spiro[furo[3,4,f]indole-7(5H),2′-[2H]pyran]-3′,4′,5′-triol], the IC50 was 2 nM.

A word on the IC50: it is the concentration needed to halve the response being measured.
